The record followed here is US20220202801A1, “USE OF COMPOUND IN PREPARATION OF DRUG FOR TREATING ATHEROSCLEROSIS” (GenEros Biopharma Ltd., priority 2019, published 2022).

One test relates to ApoE knockout mice. Description: Blood lipid metabolism TG, TCHO, HDL-c, LDL-c (Example 2). The class given is in vivo. An excerpt:
(§1) Methods: A total of 130 SPF grade C57BL/6 ApoE −/− model male mice aged 8 weeks were purchased from Charles River Laboratories (Beijing, China) (animal license number: SCXK (Beijing) 2016-0001, animal qualification certificate No.: 11400700331337). After one week of acclimatization in a SPF-grade animal facility, the animals with less weights were discarded and the rest was randomly divided into 11 groups, with 8 animals in each group. Except for the healthy control group, the rest were fed with 10% high-fat food (the first day of the high-fat diet was recorded as D1). Starting from the 8th week of the high-fat diet, each group of animals was orally given solvents or corresponding drugs, and the volume of administration was 10 ml/kg, once a day for 8 weeks. Animals were observed and administered by gavage once a day and the body weight were measured once a week for 56 days. […] The store solution of the test samples was dissolved in dimethyl sulfoxide solution and prepared with 30% PEG300.
At the end of the experiment, the animals were euthanized by inhalation of carbon dioxide. Blood was taken from the heart, and centrifuged at 3000 r/min at a low temperature centrifuge for 10 min to separate the serum. The levels of total cholesterol TC, triglyceride TG, high-density lipoprotein HDL-C, and low-density lipoprotein LDL-C were measured, and the remaining serum was stored in a refrigerator at −80° C.
Before the start of the experiment, animal blood samples were analyzed for blood lipid metabolism, including conventional triglyceride (TG), total cholesterol (TCHO), high-density lipoprotein (HDL-c) and low-density lipoprotein (LDL-c). After high-fat or ordinary food feeding for 8 weeks, the blood lipid levels were measured again. After the drug treatment was started, blood lipid measurements were performed every four weeks until the end of the experiment.

Test [1] has as its system atherosclerosis model induced by high-fat diet in ApoE knockout mice. Description: Ratio of atherosclerotic plaque area to total inner wall area of the aorta (En-Face, oil red; Example 2). The class given is in vivo. The following applies: for Mean of Plaque Ratio (plaque area to total inner wall area of aorta): high-fat diet; for symptoms of atherosclerosis under therapeutic intervention (mainly plaque area ratio): different doses, Example 2.
From the text: as §1
Immediately after blood was taken from the heart, it was perfused through the left ventricle with 20 ml of normal saline. After bloodletting, the heart and aorta (from the aortic arch to the iliac artery) were isolated. The isolated artery was cut longitudinally from the aortic arch to the iliac artery, fixed in 4% paraformaldehyde for 30 minutes, synchronized with 60% isopropanol for 10 minutes, stained in 60% oil red for 30 minutes, and washed by 60% isopropanol 3 times, 5 minutes each time. Finally, the colored aorta was washed with deionized water and photographed. The proportion of the red plaque area was measured by Image Pro Plus 6.0 (Media Cybernetics, MD, US). The heart samples were fixed in 4% paraformaldehyde solution overnight and then placed in sucrose solution for dehydration. Then, it was embedded with OCT (Sakura, Japan) under a stereo microscope and made into 7 μm frozen sections. After HE staining, the slices were used for routine pathological examination. The outflow tract images were collected under an optical microscope at 4* magnification, and 4*, 10*, 20* and 40* magnification eyepieces were used for high-quality morphological observation. The detection standard referred to the histological classification standard of human atherosclerosis disease.
Evaluate the effect of different therapeutic drugs by the ratio of the area of atherosclerotic plaque to the total area of the inner wall of the aortic vessel (En-Face)
We adopted the widely accepted standard for the severity of arteriosclerosis in animal models, and analyzed the area of all plaques on the inner wall of the aorta. […] FIGS. 46A and 46B are histograms of the ratios of plaque area on the inner wall of the aorta in each treatment group. The values in FIGS. 46A and 46B are the ratios of plaques to the total area of the inner wall in each group, and the error is standard error±SEM. The statistical significance analysis is as follows: ***P<0.001 compared with the normal control group; #P<0.05 compared with the vehicle group; ##P<0.01, ###P<0.001, compared with the vehicle group through one-way ANOVA Dunnett's test; & represents P<0.05, compared with the vehicle group by t test.

Molecules are shown by their SMILES.

As for `Cc1ccc(CC(=O)N2CCC(n3c(=O)[nH]c4ccccc43)CC2)cc1` [Sample X7, 1-(1-(2-(p-tolyl)acetyl)piperidin-4-yl)-1H-benzo[d]imidazole-2(3H)-one], in the test on ApoE knockout mice, the “effect on high-density lipoprotein (HDL-c) level compared with the vehicle group” value was “no obvious effect”, the “effect on low-density lipoprotein (LDL-c) level compared with the vehicle group” value is on record as “significantly reduce”, the “effect on total cholesterol (TCHO) level compared with the vehicle group” value is given as “significantly reduce” and the “effect on triglyceride (TG) level compared with the vehicle group” value is recorded as “significantly reduce”. In addition, the “Mean of Plaque Ratio (plaque area to total inner wall area of aorta)” value (“Mean of Plaque Ratio” for short) in test [1] (5 mpk PO QD 8 weeks) amounted to 9.00%. The “symptoms of atherosclerosis under therapeutic intervention (mainly plaque area ratio)” value in test [1] is “significantly alleviate the symptoms of atherosclerosis”.
On to `O=C(Cc1ccc(C(F)(F)F)cc1)N1CCC(n2c(=O)[nH]c3ccccc32)CC1` [Sample X8, 1-(1-(2-(4-(trifluoromethyl)phenyl)acetyl)piperidin-4-yl)-1H-benzo[d]imidazole-2(3H)-one], for which, in the test with ApoE knockout mice, the “effect on high-density lipoprotein (HDL-c) level compared with the vehicle group” value is recorded as “no obvious effect”, the “effect on low-density lipoprotein (LDL-c) level compared with the vehicle group” value is given as “significantly reduce”, the “effect on total cholesterol (TCHO) level compared with the vehicle group” value is recorded as “significantly reduce” and the “effect on triglyceride (TG) level compared with the vehicle group” value was “significantly reduce”. Also, in test [1] (5 mpk PO QD 8 weeks), the “Mean of Plaque Ratio” value worked out at 9.02%. The “Mean of Plaque Ratio” value in test [1] (10 mpk PO QD 8 weeks) amounted to 6.93%. The “symptoms of atherosclerosis under therapeutic intervention (mainly plaque area ratio)” value in test [1] is recorded as “significantly alleviate the symptoms of atherosclerosis”.
